pIC50: −log10 of the molar value.
Columns and labels:
Assay type in all cases: functional, cell-based
Settings in all cases: Homo sapiens
[1] = tested on: SK-OV-3; experiment: In vitro cytotoxic activity against SK-OV-3 (ovarian carcinoma) cell lines by using SRB assay
[2] = tested on: HCT-15; experiment: In vitro cytotoxic activity against HCT15 (colon cancer) cell lines by using SRB assay
[3] = tested on: SF-295; experiment: In vitro cytotoxic activity against SF-295 (CNS carcinoma) cell lines by using SRB assay
[4] = tested on: HOP-62; experiment: In vitro cytotoxic activity against HOP62 (lung cancer) cell lines by using SRB assay

CC(C)NC(=O)OCc1cnc2c(c1)C(=O)c1cccnc1C2=O
pIC50 [1]: 7.70
pIC50 [2]: 7.70
pIC50 [3]: 7.00
pIC50 [4]: 8.22

O=C1c2cccnc2C(=O)c2ncc(CBr)cc21
pIC50 [1]: 6.52
pIC50 [2]: 6.40
pIC50 [3]: 6.30
pIC50 [4]: 7.26

Cc1cnc2c(c1)C(=O)c1cccnc1C2=O
pIC50 [1]: 7.40
pIC50 [2]: 6.46
pIC50 [3]: 6.60
pIC50 [4]: 7.82

O=C1c2cccnc2C(=O)c2ncc(CO)cc21
pIC50 [1]: 6.70
pIC50 [2]: 6.40
pIC50 [3]: 6.52
pIC50 [4]: 7.00

COc1cccc2c1C(=O)c1c(O)c3c(c(O)c1C2=O)C[C@@](O)(C(=O)CO)C[C@@H]3O[C@H]1C[C@H](N)[C@H](O)[C@H](C)O1 [DOXORUBICIN]
pIC50 [1]: 7.70
pIC50 [2]: 7.00
pIC50 [3]: 7.46
pIC50 [4]: 8.40
